Experimental findings from patent US20220324835A1 (Nurix Therapeutics, Inc., priority 2018, published 2022) are described below.

Common to all, as to assay type: cell-based
Test [1] has as its system primary human total T-cells. As to the kind of experiment: T-cell activation assessed by cell proliferation (Cell Trace Violet). The gist of the method: (§1)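 Readouts are fold change versus compound-free cells under the same stimulation: plate-bound anti-CD3 (OKT3, 10 μg/mL coating) alone or with soluble anti-CD28 at 5 μg/mL, for 48 h. Isolated human total T cells (1×10^5/well) got inhibitor 1 h beforehand at concentrations such as 10, 1.11 or 0.123 μM. Measured: GM-CSF/IFNγ/TNFα secretion, surface CD69, proliferation by dye dilution.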

Test [2] concerns human T-cells with allogenic immature dendritic cells. As to the kind of experiment: Allogenic mixed lymphocyte reaction (MLR), T-cell proliferation. To be noted: 120 h, 5 days, baseline T-cells without Cbl-b inhibitor, read-out: Proliferation, fold change over baseline. In short, it runs like this:
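CFSE-labelled primary human T-cells, preincubated with Cbl-b inhibitor, stimulated by allogenic immature dendritic cells derived from monocytes with GM-CSF (30 ng/mL) and IL-4 (20 ng/mL) over 7 days. Proliferation by flow cytometry, expressed as fold over inhibitor-free baseline; >2-fold counted positive.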

Test [3] relates to primary human total T-cells. As to the kind of experiment: T-cell activation assessed by cytokine secretion (GM-CSF, IFNγ, TNFα). The gist of the method: as §1
[4] abbreviates: CD3/CD28 stimulation, CD4 T-cells, read-out: % CP (cell proliferation) (CD4).
Where [5] appears, read: CD3/CD28 stimulation, CD8 T-cells, read-out: % CP (cell proliferation) (CD8).
Setting [6] is: CD3 alone stimulation, CD8 T-cells, read-out: % CP (cell proliferation) (CD8).
[7] abbreviates: CD3/CD28 stimulation, read-out: GM-CSF secretion.
Setting [8] is: CD3/CD28 stimulation, read-out: IFNγ secretion.
The mark [9] stands for this setting: CD3/CD28 stimulation, read-out: TNFα secretion.
Setting [10] is: CD3 alone stimulation, read-out: GM-CSF secretion.
Setting [11] is: CD3 alone stimulation, read-out: IFNγ secretion.
The mark [12] stands for this setting: CD3 alone stimulation, read-out: TNFα secretion.

For `Cn1cnnc1[C@@H]1C[C@@H]1c1cccc(N2Cc3c(cccc3C(F)(F)F)C2=O)c1` [Compound 282, 2-(3-((1S,2R)-2-(4-methyl-4H-1,2,4-triazol-3-yl)cyclopropyl)phenyl)-4-(trifluoromethyl)isoindolin-1-one], the fold induction at 1.11 µM in test [1] (setting [4]) was < 2; in test [1] (setting [5]), < 2; in test [1] (setting [6]) it was < 2; in test [3] (setting [7]), 1.51 to 2; in test [3] (setting [8]) it was < 2; in test [3] (setting [9]), ≤ 1.5. Moreover, the fold induction at 1.11 µM in test [3] (setting [10]) was ≤ 1.5; in test [3] (setting [11]), < 2; in test [3] (setting [12]), ≤ 1.5. For the same compound, the fold induction at 10 µM was > 4 in test [1] (setting [4]); 2.01 to 3 in test [1] (setting [5]); 3.01 to 4 in test [1] (setting [6]); < 2 in test [2]; 2.01 to 4 in test [3] (setting [7]); 2.01 to 3 in test [3] (setting [8]). For the same compound, the fold induction at 10 µM is 2.01 to 4 in test [3] (setting [9]), 2.01 to 4 in test [3] (setting [10]), 2.01 to 3 in test [3] (setting [11]) and ≤ 1.5 in test [3] (setting [12]). Also, in test [2], the fold induction at 3 µM was < 2.
`C[C@H](Cc1nncn1C)c1cccc(NC(=O)c2nc(C(F)(F)F)c[nH]2)c1` [Compound 326, (R)-N-(3-(1-(4-methyl-4H-1,2,4-triazol-3-yl)propan-2-yl)phenyl)-4-(trifluoromethyl)-1H-imidazole-2-carboxamide]: the fold induction at 1.11 µM in test [1] (setting [4]) is 2.01 to 3; in test [1] (setting [5]), 2.01 to 3; in test [1] (setting [6]) it was 2.01 to 3; in test [3] (setting [7]) it was 1.51 to 2; in test [3] (setting [8]), < 2; in test [3] (setting [9]), ≤ 1.5. Further, the fold induction at 1.11 µM in test [3] (setting [10]) was 1.51 to 2; in test [3] (setting [11]) it was < 2; in test [3] (setting [12]) it was ≤ 1.5. In addition, the fold induction at 10 µM in test [1] (setting [4]) is > 4; in test [1] (setting [5]) it was 3.01 to 4; in test [1] (setting [6]) it was > 4; in test [2], < 2; in test [3] (setting [7]), 2.01 to 4; in test [3] (setting [8]), 2.01 to 3. Moreover, the fold induction at 10 µM in test [3] (setting [9]) lay within 2.01 to 4; in test [3] (setting [10]), 2.01 to 4; in test [3] (setting [11]), 2.01 to 3; in test [3] (setting [12]), 1.51 to 2. For the same compound, the fold induction at 3 µM in test [2] is < 2.
Consider `Cn1cnnc1[C@@H]1C[C@@H]1c1cccc(N2Cc3c(ccnc3C(F)(F)F)C2=O)c1` [Compound 369, 2-{3-[(1S,2R)-2-(4-methyl-4H-1,2,4-triazol-3-yl)cyclopropyl]phenyl}-4-(trifluoromethyl)-1H,2H,3H-pyrrolo[3,4-c]pyridin-1-one], for which the fold induction at 1.11 µM in test [1] (setting [4]) is < 2; in test [1] (setting [5]) it was < 2; in test [1] (setting [6]), < 2; in test [3] (setting [7]) it was ≤ 1.5; in test [3] (setting [8]) it was < 2; in test [3] (setting [9]), ≤ 1.5. The fold induction at 1.11 µM in test [3] (setting [10]) is ≤ 1.5; in test [3] (setting [11]) it was < 2; in test [3] (setting [12]), ≤ 1.5. Moreover, the fold induction at 10 µM in test [1] (setting [4]) was > 4; in test [1] (setting [5]), 2.01 to 3; in test [1] (setting [6]) it was < 2; in test [2] it was < 2; in test [3] (setting [7]), 2.01 to 4; in test [3] (setting [8]), < 2. The fold induction at 10 µM is 2.01 to 4 in test [3] (setting [9]), ≤ 1.5 in test [3] (setting [10]), < 2 in test [3] (setting [11]) and 1.51 to 2 in test [3] (setting [12]). The fold induction at 3 µM in test [2] is < 2.
As to `Cc1cc2c(c(C3CC3)n1)CN(c1cccc([C@H](C)Cc3nncn3C)c1)C2=O` [Compound 372, 4-cyclopropyl-6-methyl-2-{3-[(2R)-1-(4-methyl-4H-1,2,4-triazol-3-yl)propan-2-yl]phenyl}-1H,2H,3H-pyrrolo[3,4-c]pyridin-1-one], the fold induction at 1.11 µM was < 2 in test [1] (setting [4]); < 2 in test [1] (setting [5]); < 2 in test [1] (setting [6]); ≤ 1.5 in test [3] (setting [7]); < 2 in test [3] (setting [8]); ≤ 1.5 in test [3] (setting [9]). The fold induction at 1.11 µM is ≤ 1.5 in test [3] (setting [10]), < 2 in test [3] (setting [11]) and ≤ 1.5 in test [3] (setting [12]). Besides, the fold induction at 10 µM is > 4 in test [1] (setting [4]); 2.01 to 3 in test [1] (setting [5]); 2.01 to 3 in test [1] (setting [6]); < 2 in test [2]; 2.01 to 4 in test [3] (setting [7]); < 2 in test [3] (setting [8]). The fold induction at 10 µM in test [3] (setting [9]) was 2.01 to 4; in test [3] (setting [10]) it was 1.51 to 2; in test [3] (setting [11]), < 2; in test [3] (setting [12]), ≤ 1.5. Also, the fold induction at 3 µM in test [2] was < 2.
`CNCc1ccc(C(=O)Nc2cccc([C@H](C)Cc3nncn3C)c2)nc1C1CC1` [Compound 376, (R)-6-cyclopropyl-N-(3-(1-(4-methyl-4H-1,2,4-triazol-3-yl)propan-2-yl)phenyl)-5-((methylamino)methyl)picolinamide]: the fold induction at 1.11 µM in test [1] (setting [4]) is > 4; in test [1] (setting [5]), 3.01 to 4; in test [1] (setting [6]), > 4; in test [3] (setting [7]) it was 2.01 to 4; in test [3] (setting [8]) it was < 2; in test [3] (setting [9]) it was 2.01 to 4. The fold induction at 1.11 µM in test [3] (setting [10]) is 1.51 to 2; in test [3] (setting [11]) it was 2.01 to 3; in test [3] (setting [12]) it was ≤ 1.5. The fold induction at 10 µM in test [1] (setting [4]) was > 4; in test [1] (setting [5]) it was > 4; in test [1] (setting [6]) it was > 4; in test [2] it was < 2; in test [3] (setting [7]), > 4; in test [3] (setting [8]), < 2. Besides, the fold induction at 10 µM in test [3] (setting [9]) lay in the range of 2.01 to 4; in test [3] (setting [10]), 2.01 to 4; in test [3] (setting [11]), 3.01 to 4; in test [3] (setting [12]), 1.51 to 2. For the same compound, the fold induction at 3 µM in test [2] is < 2.
